# From patent publication US10813920B2, “Drug for treating corneal endothelium by promoting cell proliferation or inhibiting cell damage” (THE DOSHISHA, priority 2013, dated 2020)
# Columns and labels:
# [1] = test system: human corneal endothelial cells; test: Cytokine antibody array (Proteome Profiler) of corneal endothelial culture supernatant; type: cell-based; conditions: 10 μM, semi quantitative
# Protocol: Corneal endothelial cells were cultured in the presence of 10 μM SB203580, and culture supernatant was collected as a sample solution. Cytokines in the culture supernatant were comprehensively measured semi quantitatively with a Proteome Profiler (# ARY005, R&D). A membrane blotted with cytokine antibodies was placed in a tray. 2 ml of blocking solution was added and the membrane was incubated for 1 hour at room temperature. Biotin antibodies were added to the sample solution and incubated for 1 hour at room temperature. The blocking solution was discarded. The membrane was immersed in an antibody solution and incubated overnight at 4° C. After washing the membrane, 2 ml of HRP labeling streptavidin solution diluted with a blocking solution was added and the membrane was incubated at room temperature for 30 minutes. After washing the membrane, a substrate solution was added for detection with LAS400 (Fuji Film).
# Based on the aforementioned experimental methodology, a cytokine antibody array (Proteome Profiler, # ARY005, R&D Systems) blotted with 36 types of antibodies was used to find the expression pattern of cytokines in a human corneal endothelial culture solution.
# [2] = test system: human corneal endothelial cells; test: BrdU uptake ELISA in cultured human corneal endothelial cells (Example 2); type: cell-based; conditions: ELISA after 3 days; 1, 3, 10, 30 μM; relative to control
# Protocol: *The amount of IL-6 expression of human corneal endothelial cells was quantified by RT-PCR by the following method. Human corneal endothelial cells (n=3, passage 5) were cultured for 20 days in the presence of 10 μM of SB203580, and then RNA was extracted with RneasyMini (QIAGEN). 277 ng of total RNA was reverse-transcribed with RevertraAce (Toyobo) and cDNA synthesized into a template to perform PCR. 10 μl of PCR solution containing 1 μl of reaction mixture from single strand cDNA synthesis was heated for 1 minute at an initial temperature of 94° C. and then 1 minute at 94° C., 30 seconds at 54° C., and 30 seconds at 72° C. The temperature cycle was repeated 30 times. IL-6 sense primer: […] (SEQ ID NO: 1) IL-6 antisense primer: […] (SEQ ID NO: 2) *ELISA (BrdU): Cells were seeded on a 96-well culture plate at a seeding density of 5000 cells/well. […] The reaction was stopped with 1M sulfuric acid to measure the absorbance at 450 nm with a plate reader. […] The amount of IL-6 protein in a culture supernatant collected after 7 days was quantified in accordance with the manual of DuoSetELISA human IL-6 (R & D Cat # DY206). […] The plate was washed and the bound peroxidase was detected with a substrate solution (R&D Systems Cat # DY999). The coloring reaction was stopped with 2M of H2SO4 to read out the plate with Multimax (Promega) at […]. […]
compound,measurement,setting,value
"C[S+]([O-])c1ccc(-c2nc(-c3ccncc3)c(-c3ccc(F)cc3)[nH]2)cc1 (centres unmarked) [SB203580, 4-(4-fluorophenyl)-2-(4-methylsulfinylphenyl)-5-(4-pyridyl)-1H-imidazole]","Cytokines other than serpinE1 (GROa, sICAM-1, IL-6, IL-8, IL-23, MCP-1, MIF) in culture supernatant",[1],decreased relative to vehicle
same,BrdU uptake,[2],significantly promoted
